Reference: ChEMBL document CHEMBL1146253, “A distal methyl substituent attenuates mitochondrial protein synthesis inhibition in oxazolidinone antibacterials” (Bioorg Med Chem Lett, 2007)
In brackets after ≈: the same amount, converted by molar mass.

Tests used:
Type in all cases: functional
Streptococcus pneumoniae = assay: Antibacterial activity against Streptococcus pneumoniae by broth microdilution method
Staphylococcus aureus = assay: Antibacterial activity against Staphylococcus aureus by broth microdilution method
Enterococcus faecalis = assay: Antibacterial activity against Enterococcus faecalis by broth microdilution method
Escherichia coli = assay: Intrinsic binding affinity to Escherichia coli ribosmes by TnT assay

Row | SMILES | MIC90 (Streptococcus pneumoniae) [µg/mL] | MIC90 (Staphylococcus aureus) [µg/mL] | MIC90 (Enterococcus faecalis) [µg/mL] | IC50 (Escherichia coli) [nM]
1 | CC(=O)NC[C@H]1CN(c2ccc(N3CCOCC3)c(F)c2)C(=O)O1 [LINEZOLID] | 1 (≈ 2.96 µM) | 4 (≈ 11.9 µM) | 4 (≈ 11.9 µM) | 
2 | CC(=O)NC[C@H]1CN(c2cc(F)c(N3CC(O)C3)c(F)c2)C(=O)O1 | 1 (≈ 2.93 µM) | 2 (≈ 5.86 µM) | 2 (≈ 5.86 µM) | 1900
3 | COC1(C)CN(c2c(F)cc(N3C[C@H](CNC(C)=O)OC3=O)cc2F)C1 | 1 (≈ 2.71 µM) | 4 (≈ 10.8 µM) | 4 (≈ 10.8 µM) | 3700
4 | CC(=O)NC[C@H]1CN(c2cc(F)c(N3CC(F)C3)c(F)c2)C(=O)O1 | 1 (≈ 2.91 µM) | 2 (≈ 5.83 µM) | 2 (≈ 5.83 µM) | 1400
5 | CCC1(O)CN(c2c(F)cc(N3C[C@H](CNC(C)=O)OC3=O)cc2F)C1 | 2 (≈ 5.41 µM) | 4 (≈ 10.8 µM) | 2 (≈ 5.41 µM) | 2700
6 | CCC1(O)CCN(c2c(F)cc(N3C[C@H](CNC(C)=O)OC3=O)cc2F)CC1 | 1 (≈ 2.52 µM) | 4 (≈ 10.1 µM) | 2 (≈ 5.03 µM) | 2100
7 | CC(=O)NC[C@H]1CN(c2cc(F)c(N3CC(C)(O)C3)c(F)c2)C(=O)O1 | 1 (≈ 2.81 µM) | 4 (≈ 11.3 µM) | 4 (≈ 11.3 µM) | 3400
8 | CC(=O)NC[C@H]1CN(c2cc(F)c(N3CCC(C)(O)CC3)c(F)c2)C(=O)O1 | 1 (≈ 2.61 µM) | 4 (≈ 10.4 µM) | 2 (≈ 5.22 µM) | 2100
9 | CC(=O)NC[C@H]1CN(c2cc(F)c(N3CCC(C)(CC#N)CC3)c(F)c2)C(=O)O1 | 1 (≈ 2.46 µM) | 2 (≈ 4.92 µM) | 1 (≈ 2.46 µM) | 
10 | CC(=O)NC[C@H]1CN(c2cc(F)c(N3CC(C)(F)C3)c(F)c2)C(=O)O1 | 1 (≈ 2.8 µM) | 4 (≈ 11.2 µM) | 2 (≈ 5.6 µM) | 2300
11 | COC1CN(c2c(F)cc(N3C[C@H](CNC(C)=O)OC3=O)cc2F)C1 | 1 (≈ 2.81 µM) | 2 (≈ 5.63 µM) | 2 (≈ 5.63 µM) | 2600
12 | CC(=O)NC[C@H]1CN(c2cc(F)c(N3CCC(CC#N)CC3)c(F)c2)C(=O)O1 | 1 (≈ 2.55 µM) | 2 (≈ 5.1 µM) | 1 (≈ 2.55 µM) | 1600
13 | CC(=O)NC[C@H]1CN(c2cc(F)c(N3CC(O)(C(F)(F)F)C3)c(F)c2)C(=O)O1 | 2 (≈ 4.89 µM) | 4 (≈ 9.77 µM) | 2 (≈ 4.89 µM) | 2400
14 | CC(=O)NC[C@H]1CN(c2cc(F)c(N3CCC(O)CC3)c(F)c2)C(=O)O1 | 1 (≈ 2.71 µM) | 2 (≈ 5.41 µM) | 2 (≈ 5.41 µM) | 1700
